The target in experiment [1] is T1, Cholecystokinin receptor type A (Homo sapiens, UniProt P32238).
T1 sequence (P32238 whole entry): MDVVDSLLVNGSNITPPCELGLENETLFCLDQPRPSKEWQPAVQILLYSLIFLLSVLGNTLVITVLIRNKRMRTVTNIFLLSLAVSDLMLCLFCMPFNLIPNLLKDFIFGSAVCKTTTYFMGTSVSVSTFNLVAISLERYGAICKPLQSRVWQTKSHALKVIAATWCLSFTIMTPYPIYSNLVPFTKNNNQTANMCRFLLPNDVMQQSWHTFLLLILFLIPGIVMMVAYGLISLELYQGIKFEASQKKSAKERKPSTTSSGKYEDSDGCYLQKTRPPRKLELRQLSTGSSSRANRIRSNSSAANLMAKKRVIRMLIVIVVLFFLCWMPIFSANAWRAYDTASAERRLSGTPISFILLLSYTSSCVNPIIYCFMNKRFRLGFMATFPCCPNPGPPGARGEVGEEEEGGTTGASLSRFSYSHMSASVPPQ
Kind of experiment: Compound was tested for its binding affinity towards Cholecystokinin type A receptor in pancreatic membranes. The class given is cell membranes.

In experiment [2] the target is T2, Cholecystokinin receptor type A (Homo sapiens) (UniProt P32238).
T2 sequence (whole entry): T1 sequence (P32238 whole entry)
Kind of experiment: Ratio of binding affinity of Cholecystokinin type A receptor […].

The target in experiment [3] is T3, Gastrin/cholecystokinin type B receptor (Homo sapiens, UniProt P32239).
T3 sequence (P32239 whole entry): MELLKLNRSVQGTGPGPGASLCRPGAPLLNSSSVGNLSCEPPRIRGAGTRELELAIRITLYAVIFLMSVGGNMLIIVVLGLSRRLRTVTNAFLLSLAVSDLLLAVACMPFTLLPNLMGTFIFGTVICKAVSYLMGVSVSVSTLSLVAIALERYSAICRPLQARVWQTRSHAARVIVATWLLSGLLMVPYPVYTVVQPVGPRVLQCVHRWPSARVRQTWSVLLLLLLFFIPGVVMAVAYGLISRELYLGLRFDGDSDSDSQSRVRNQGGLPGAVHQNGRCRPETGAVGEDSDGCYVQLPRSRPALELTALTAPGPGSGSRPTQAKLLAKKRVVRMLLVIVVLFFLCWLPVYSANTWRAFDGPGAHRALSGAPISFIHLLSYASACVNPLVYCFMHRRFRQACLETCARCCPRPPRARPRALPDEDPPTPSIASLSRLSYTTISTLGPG
Put plainly: Compound was tested for its binding affinity towards Cholecystokinin type B receptor in cortical membranes (CNS). The class given is cell membranes.

A word on the IC50: it is the midpoint of a concentration-inhibition curve. A lower IC50 goes with greater potency.

The structures appear in SMILES notation. Starred links: 1 amine or outer side, 2 acyl side, 3 side chain; linkers in the order of their positions; H or OH if unused. Non-standard residues stand in square brackets, D forms with d. Residues, ends and D or L forms follow the SMILES beside them. X1 = CCCC1C[C@@H](C(=O)[*:2])N([*:1])C1; NMeNle = CCCC[C@H](NC)C(=O)O; Nle = CCCC[C@H](N)C(=O)O

For `CCCC[C@@H](C(=O)N[C@@H](CC(=O)OCc1ccccc1)[C@@H](Cc1ccccc1)C(N)=O)n1nnnc1[C@H](Cc1c[nH]c2ccccc12)NC(=O)CNC(=O)OC(C)(C)C` (mixture of isomers), the IC50 was determined as 364 nM in experiment [1] and 4250 nM in experiment [3]. In experiment [2], the Ratio came to 0.09.
Turning to `CCCC[C@@H](C(=O)N[C@@H](CC(=O)O)C(=O)N[C@@H](Cc1ccccc1)C(N)=O)N(C)C(=O)[C@H](Cc1c[nH]c2ccccc12)NC(=O)CN` (H-GW[NMeNle]DF-NH2), the IC50 in experiment [1] is > 10000 nM.
`CCCC[C@@H](C(=O)N[C@@H](CC(=O)O)[C@@H](Cc1ccccc1)C(N)=O)n1nnnc1[C@H](Cc1c[nH]c2ccccc12)NC(=O)CN`: the half-inhibitory concentration (IC50) in experiment [1] was > 10000 nM; in experiment [3] it was 4530 nM. Besides, the Ratio in experiment [2] is > 1.9.
In the case of `CCCC[C@@H](C(=O)N[C@@H](CC(=O)OCc1ccccc1)[C@@H](Cc1ccccc1)C(N)=O)n1nnnc1[C@H](Cc1c[nH]c2ccccc12)NC(=O)OC(C)(C)C` (mixture of isomers), the figures for the IC50 in experiment [1] and in experiment [3] were 36.7 nM and 1880 nM, respectively. For the same molecule, the Ratio in experiment [2] is 0.02.
Consider `CCCC[C@H](NC(=O)[C@H](Cc1c[nH]c2ccccc12)NC(=O)CN)C(=O)N[C@@H](CC(=O)O)C(=O)N[C@@H](Cc1ccccc1)C(N)=O` (H-GW[Nle]DF-NH2), for which the IC50 in experiment [1] turned out to be 2180 nM; in experiment [3] it was 169 nM. The Ratio in experiment [2] stood at 12.9.
In the case of `CCCCC(C(=O)OCc1ccccc1)n1nnnc1C(Cc1cn(C(=O)OCc2ccccc2)c2ccccc12)NC(=O)OCc1ccccc1` (stereo not drawn), the half-maximal inhibitory concentration (IC50) in experiment [1] and in experiment [3] was > 10000 nM each time.
For the molecule `CCCC1C[C@@H](C(=O)N[C@@H](CC(=O)O)C(=O)N[C@@H](Cc2ccccc2)C(N)=O)N(C(=O)[C@H](Cc2c[nH]c3ccccc23)NC(=O)CN)C1` (stereo partly drawn) (H-GW[X1]DF-NH2), the results for the concentration for half-maximal inhibition (IC50) in experiment [1] and in experiment [3] were 2700 nM and 1.9 nM, respectively. Besides, in experiment [2], the Ratio stood at 1420.
